Data published in publication PMC11660961, “Leucinostatins target Plasmodium mitochondria to block malaria transmission” (Parasites & Vectors, 2024).
Entries after “also recorded” stand apart in the source; their conditions may differ. *1 amine or outer side, *2 acyl side, *3 side chain or, on linkers, in order; H or OH if unused. Where a SMILES comes first, the peptide text is derived from it. [ ]: non-standard residue; d: D form. The star is where a group is joined. X3 = C[C@@H](CN(C)C(=O)CCCCCNC(=O)CCCC[C@@H]1SC[C@@H]2NC(=O)N[C@@H]21)N*; X2 = C[C@@H](CN(C)C(=O)CCC[n+]1c2cc(N(C)C)ccc2cc2ccc(N(C)C)cc21)N*; X1 = CCC(=O)C[C@H](O)C[C@@H](C)C[C@H](N[*:1])C(=O)[*:2]; Hexenoyl(2E,4S-Me) = CC[C@H](C)/C=C/C(=O)*; Leu(3R-OH) = CC(C)[C@@H](O)[C@H](N)C(=O)O; NH((S)CH(Me)CH2NMe2) = C[C@@H](CN(C)C)N*; Pro(4S-Me) = C[C@@H]1CN[C@H](C(=O)O)C1; NH((S)CH(CH3)CH2NHMe) = CNC[C@H](C)N*; Aib = CC(C)(N)C(=O)O; βAla = NCCC(=O)O

Tests used:
[1] = Reverse-phase C18 HPLC elution time as measure of hydrophobicity; type: physicochemical; settings: chromatographic; semi-prep C18 column (Gemini 5 μm 110A, 250 × 10 mm), gradient 50% methanol to 100% methanol in 50 min, 1 ml per min, A254; approximate time
Procedure: LA and LB were purified from P. lilacum as described. LA/LB mixture (Sigma) was also purchased from Sigma. LB C-terminus were modified by linking biotin and Atto495. Around 0.4 µmol of LB and 8 µmol of amine-reactive EZ-Link™ NHS-LC-Biotin (Invitrogen; molar ratio: 1:20) were mixed in 2 mL of PBS buffer (pH = 7.2) and reacted for continuous stirring 4 h at room temperature. Then, the reaction sample was analyzed and purified by semi-prep high-performance liquid chromatography (HPLC; Shimadzu) C18 column (Gemini 5 μm 110A, 250 × 10 mm) with gradient elution of 50% methanol to 100% methanol in 50 min. The flow rate was 1 ml per min. The LB-biotin conjugate fraction was dried at room temperature with a rotary vacuum evaporator (Heidolph).
The reaction of LB with amine-reactive Atto495 NHS ester (Sigma) was conducted in DMSO. Firstly, Atto495 NHS ester (3 mM), LB (1 mM), and triethylamine (100 mM) were mixed in DMSO in a 0.2 mL reaction volume and reacted at room temperature for 4 h with continuous stirring while protected from light. The reaction solution was applied to semi-prep HPLC to obtain the conjugate of LB-Atto495 as described above, and the LB-Atto495 was dried for use.
The pure LB was reacted with amine-reactive Atto495 NHS ester in DMSO. The reaction solution was applied to semi-prep HPLC. The conjugate of LB-Atto495 was eluded at 29 min (Fig. 2b). […] On the basis of elution times from the HPLC C18 column, the hydrophobicity of four compounds is LB < LA < LB-Atto495 < LB-biotin.

[2] = test system: P. falciparum transmission to mosquitoes; experiment: Standard membrane feeding assay (SMFA), malaria transmission-blocking activity; type: in vivo, Plasmodium falciparum (NF54) in Anopheles gambiae (G3); settings: same set of cultured parasites and mosquitoes, Fig. 3d
Procedure: As we described previously, we maintained An. gambiae (G3 strain) at 27 °C with 80% humidity and a 12 h day/night cycle. Larvae were fed fish food for koi, adult mosquitoes were maintained with 10% sugar in water, and female mosquitoes were fed with purchased human blood to lay eggs. Eggs were collected 48 h after blood-feeding with wet filter papers and hatched in pure water.
P. falciparum (NF54) was cultured in the lab with 4% O + -type red blood cells in a complete Roswell Park Memorial Institute (RPMI) 1640 medium with 10% human AB + serum and 12.5 μg/ml of hypoxanthine in a candle jar at 37 °C. Then, 15-day-old cultured P. falciparum-infected cells were collected through centrifugation (300 g for 3 min), and about 100 μl of pellet were resuspended in 1.5 ml fresh AB + -type serum and mixed with 1.4 ml O + -type red blood cells, containing about 0.2% stage V gametocytes. Each candidate compound was dissolved in dimethylsulfoxide (DMSO) and diluted with DMSO to obtain different concentrations. About 2 μl of candidate solution was mixed with 298 μl of P. falciparum-infected blood prepared above and was used to feed 60–80 3–5-day-old An. gambiae with feeders covered with parafilm at 37 °C for 30 min. […] The midguts were stained with 0.1% mercury dibromofluorescein disodium salt in phosphate-buffered saline (PBS), and the oocysts were counted under a light microscope.

[3] = test system: P. falciparum gametocytes; experiment: Distribution of LB-Atto495 in live gametocytes by fluorescence microscopy; type: cell-based, Plasmodium falciparum; settings: LB-Atto495 (1 µl of 1 mM in 100 µl) incubated 6 h at room temperature, fluorescent microscope
Procedure: The 15-day-old cultured P. falciparum was collected from a six-well plate. After centrifugation (300 g for 3 min), the cells were washed with 1 ml of PBS three times at room temperature. About 10 μl of cells was suspended in 100 μl of PBS, and 1 μl of LB-Atto495 (1 mM in DMSO) was added and mixed. The cells were incubated at room temperature in the dark for 6 h. The mixture was centrifuged at 300 g for 3 min to collect cells, which were washed three times with 200 μl of PBS. Finally, the cells were deposited on slides to make a blood smear and fixed with methanol. The vector shield antifade mounting medium for fluorescence (VectorLabs, CA) was dropped on the slides. The slides were covered with coverslips and examined under a fluorescent microscope (Nikon Eclipse Ti-S).

[4] = Cytotoxicity assay, MTT, HEK293; type: cell-based, human; settings: 24 h incubation at 37 °C, three replicates
Procedure: (§1) Two methods and two types of cells were used to analyze the general cytotoxicity of small molecules. First, MTT (3-(4,5-dimethylthiazol-2-yl)-2,5-diphenyl tetrazolium bromide; Thermo-fisher) and human embryonic kidney 293 (HEK293) were used in cytotoxicity assays. About 20,000 HEK293 cells in 200 µl of culture medium [Dulbecco’s modified eagle medium (DMEM) with high glutamine and 10% fetal bovine serum] were seeded per well in 96-well microplates. About 1 µl of the compounds in DMSO at various dilutions was added into each well to obtain final concentrations of 0, 10, 100, and 1000 ng/mL. Three replicates were conducted for each concentration. Following incubation at 37 °C with 5% CO2 for 24 h, 10 µL of MTT (5 mg/mL in PBS) was added to each well and incubated for 4 h at 37 °C with 5% CO2. All but 25 µL of the medium was removed from the wells, and 100 µL of DMSO was added to each well and incubated at 37 °C for 10 min to dissolve formazan crystals for measurement. Optical density was measured at an absorbance wavelength of 540 nm.

[5] = test system: human embryonic kidney 293 (HEK293) cells; experiment: Cytotoxicity assay, MTT, HEK293; type: cell-based
Procedure: as §1

[6] = test system: K562 cell line (human immortalized myelogenous leukemia cell); experiment: Cell proliferation assay, CCK-8 kit, K562; type: cell-based
Procedure: Second, the CCK-8 kit (Sigma) and K562 cell line (human immortalized myelogenous leukemia cell) were used to determine the inhibition of a compound against cell proliferation. About 20,000 cells in 200 µl of culture medium (RMPI-1640 with 10% fetal bovine serum) were seeded per well in 96-well microplates, and then a series of dilutions of the compound from 0 to 1000 ng/ml was added to the medium. The cells were maintained at 37 °C and 5% CO2 for 48 h, and then 20 μl of the CCK-8 solution was added to each well of the plate. The plate was incubated for 1 h, and the A450 was measured using a microplate.

O+ human red blood cells = experiment: Hemolysis assay; type: cell-based; settings: 100 µM, 10% human RBC suspension in PBS pH 7.4, 3 h at 37 °C, A540, triplicate, p > 0.9
Procedure: About 200 µL of O + human red blood cells were washed three times in PBS (pH 7.4) and then suspended with 1 ml of PBS. Then, 0.3 ml of suspension was diluted with 3 mL of PBS to obtain a 10% suspension. All tested compounds were dissolved in DMSO to prepare a series of dilutions of 1 nM, 10 nM, 100 nM, 1 µM, 10 µM, and 100 µM. The erythrocyte suspension (100 μl per well) was added to a 96-well plate, and the samples were rapidly stirred and incubated at 37 °C with periodic stirring during a 3-h incubation period. The solution was then centrifuged at 2,000 rpm for 5 min. The absorbance of the supernatant was measured at 540 nm using a microplate, and the hemolytic ratio (%) was calculated by comparison with the 100% hemolytic activity caused by distilled water as maximal hemolytic control. The hemolytic % developed by the PBS control was subtracted from all groups. Each experiment was performed in triplicate.

Hela cells = settings: read-out: IC50 against Hela cells; cited from earlier work
Procedure: Leucinostatins have antimicrobial activity against gram-positive bacteria, including Staphylococcus albus, Bacillus subtilis, Sarcina letter, Streptococcus pyrogens, Streptococcus faecalis, and Mycobacterium species, with IC50 values ranging from 2.5 to 100 μM and against some fungal strains with minimal inhibitory concentrations of 10–25 μM [9–11]. In addition, leucinostatins are known as mycotoxins. The IC50 of leucinostatin Α (LA) to MRC-5 (human fetal lung fibroblast cells) is 2 μΜ [12]. […] The IC50 of LA against H ...

mice = test system: mice; set-up: method as in 2 sources, ref 9 = [9]; PMID 4783199; doi:10.7164/antibiotics.26.157; 9. Arai T Mikami Y Fukushima K Utsumi T Yazawa K A new antibiotic, leucinostatin, derived from Penicillium lilacinum J Antibiot (Tokyo) 1973 26 157 161 10.7164/antibiotics.26.157 4783199 Arai T, Mikam ||| ref 10 (Mikami et al.); settings: intraperitoneal injection; cited from earlier work

O=C(CCCC[C@@H]1SC[C@@H]2NC(=O)N[C@@H]21)NCCCCCC(=O)ON1C(=O)CC(S(=O)(=O)[O-])C1=O.[Na+] (some centres unmarked) [sulfo-NHS-LC-Biotin]
HPLC elution time (hydrophobicity) [1]: ~16.5 min

CCC(=O)C[C@H](O)C[C@@H](C)C[C@H](NC(=O)[C@@H]1C[C@H](C)CN1C(=O)/C=C/[C@@H](C)CC)C(=O)N[C@H](C(=O)NC(C)(C)C(=O)N[C@@H](CC(C)C)C(=O)N[C@@H](CC(C)C)C(=O)NC(C)(C)C(=O)NC(C)(C)C(=O)NCCC(=O)N[C@@H](C)CN(C)C(=O)CCCCCNC(=O)CCCC[C@@H]1SC[C@@H]2NC(=O)N[C@@H]21)[C@H](O)C(C)C [LB-biotin] ({Hexenoyl(2E,4S-Me)}-[Pro(4S-Me)][X1][Leu(3R-OH)][Aib]LL[Aib][Aib][βAla]-X3)
Blocking of P. falciparum transmission to mosquitoes at 10 nM [2]: did not inhibit | HPLC elution time (hydrophobicity) [1]: ~31.5 min

CCC(=O)C[C@H](O)C[C@@H](C)C[C@H](NC(=O)[C@@H]1C[C@H](C)CN1C(=O)/C=C/[C@@H](C)CC)C(=O)N[C@H](C(=O)NC(C)(C)C(=O)N[C@@H](CC(C)C)C(=O)N[C@@H](CC(C)C)C(=O)NC(C)(C)C(=O)NC(C)(C)C(=O)NCCC(=O)N[C@@H](C)CN(C)C(=O)CCC[n+]1c2cc(N(C)C)ccc2cc2ccc(N(C)C)cc21)[C@H](O)C(C)C [LB-Atto495] ({Hexenoyl(2E,4S-Me)}-[Pro(4S-Me)][X1][Leu(3R-OH)][Aib]LL[Aib][Aib][βAla]-X2)
HPLC elution time (hydrophobicity) [1]: 29 min | Location in live P. falciparum gametocytes [3]: colocalized with mitochondria; also recorded: binds mitochondria specifically in parasites

CCC(=O)C[C@H](O)C[C@@H](C)C[C@H](NC(=O)[C@@H]1C[C@H](C)CN1C(=O)/C=C/[C@@H](C)CC)C(=O)N[C@H](C(=O)NC(C)(C)C(=O)N[C@@H](CC(C)C)C(=O)N[C@@H](CC(C)C)C(=O)NC(C)(C)C(=O)NC(C)(C)C(=O)NCCC(=O)N[C@@H](C)CNC)[C@H](O)C(C)C [LB, leucinostatin B] ({Hexenoyl(2E,4S-Me)}-[Pro(4S-Me)][X1][Leu(3R-OH)][Aib]LL[Aib][Aib][βAla]-{NH((S)CH(CH3)CH2NHMe)})
Blocking of P. falciparum transmission to mosquitoes at 10 nM [2]: completely blocked | HPLC elution time (hydrophobicity) [1]: ~27.5 min

CCC(=O)C[C@H](O)C[C@@H](C)C[C@H](NC(=O)[C@@H]1C[C@H](C)CN1C(=O)/C=C/[C@@H](C)CC)C(=O)N[C@H](C(=O)NC(C)(C)C(=O)N[C@@H](CC(C)C)C(=O)N[C@@H](CC(C)C)C(=O)NC(C)(C)C(=O)NC(C)(C)C(=O)NCCC(=O)N[C@@H](C)CN(C)C)[C@H](O)C(C)C [LA, leucinostatin A] ({Hexenoyl(2E,4S-Me)}-[Pro(4S-Me)][X1][Leu(3R-OH)][Aib]LL[Aib][Aib][βAla]-{NH((S)CH(Me)CH2NMe2)})
HPLC elution time (hydrophobicity) [1]: ~28.3 min | IC50 [4]: 89.6 nM | Density of living cells versus 0 control, HEK293 ([5]; 10 ng/mL, p > 0.7): no significant difference | Reduction of cell proliferation, HEK293 ([5]; 100 nM, 24 h): 38% | Density of living cells versus 0 control, K562 ([6]; 10 ng/mL, CCK-8, p > 0.6): no significant difference | Reduction of cell proliferation, K562 ([6]; 100 nM, CCK-8, 48 h): 43.7% | Hemolysis of red blood cells (O+ human red blood cells): not significantly different | Hemolysis of red blood cells (O+ human red blood cells; listed as leucinostatin A): did not lyse erythrocytes | IC50 (Hela cells): ~40 nM | LD50 (mice): 1.6 mg/kg
